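Grown in 96-well plates, cells were treated for 48 hours with each compound at five concentrations. Insufficient inhibition: endpoint recorded as highest concentration tested. The concentration for 50% growth inhibition is given as GI50. TGI is the concentration that stops growth completely.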
How the values were obtained:
Assay in all cases: NCI tumour cell line growth inhibition, 48 h
[1] = test system: DMS 273 small cell lung
[2] = test system: XF 498 CNS
[3] = test system: DMS 114 small cell lung
[4] = test system: RXF-631 renal
[5] = test system: KM20L2 colon
[6] = test system: P388 leukemia
[7] = test system: SN12K1 renal
[8] = test system: HOP-18 NSCLC
[9] = test system: P388/ADR leukemia
[10] = test system: MDA-N

Row | Structure (SMILES) | TGI [1] [µM] | TGI [2] [µM] | TGI [3] [µM] | TGI [4] [µM] | TGI [5] [µM] | TGI [6] [µM] | TGI [7] [µM] | TGI [8] [µM] | TGI [9] [µM] | TGI [10] | GI50 [10] [µg/mL]
1 | CNC(=O)OCc1nc(S(C)=O)n(C)c1COC(=O)NC (stereo not given) | > 100 | > 100 | > 56.2 | > 100 | > 100 | > 100 | > 100 | > 100 | > 100 | – | –
2 | CC1CC(=O)C(C(O)CC2CC(=O)N(c3ccccc3)C(=O)C2)C(C)C1 (stereo not given) | > 100 | – | > 100 | – | > 100 | – | – | > 100 | – | – | –
3 | COCCN1C2=CCCCC2=Nc2c(N)nc(N)nc21 | > 100 | > 100 | > 100 | > 100 | > 100 | – | – | > 100 | – | – | –
4 | COc1cc2c(cc1OC)-c1c(cc(OC)c(OC)c1OC)C2=O | – | – | > 100 | > 100 | > 100 | – | – | > 100 | – | – | –
5 | CN/N=C(\C)CC(=O)Nc1cccc(Cl)c1C | > 100 | > 100 | > 100 | > 100 | > 100 | – | – | > 100 | – | – | –
6 | O=C1OC(c2ccc([N+](=O)[O-])cc2)=N/C1=C\c1ccc(O)cc1 | – | – | – | – | – | – | – | – | – | > 100 µM | –
7 | Cc1ccccc1NC(=O)C(=O)Cc1nc2ccccc2s1 | > 100 | > 100 | > 100 | > 100 | – | – | – | > 100 | – | – | –
8 | O=C(O)C1Cc2nc[nH]c2CN1 (stereo not given) | > 100 | – | > 100 | > 100 | > 100 | – | – | > 100 | – | – | –
9 | CC(C)OCN1COCN=C1NC#N | > 100 | – | > 100 | > 100 | > 100 | – | – | > 100 | – | – | –
10 | COc1ccc(C(=O)C(C(=O)C(=O)Nc2nc3ccc(OC)cc3s2)c2ccc(OC)cc2)cc1 (stereo not given) | > 100 | > 100 | > 100 | > 100 | > 100 | – | – | > 100 | – | – | –
11 | COC1OC(C)C(OC(=O)C(C)(C)C)C(C)(O)C1O (stereo not given) | > 100 | > 100 | – | – | > 100 | – | – | > 100 | – | – | –
12 | Oc1cccc(C2SCc3nc4ccccc4n32)c1 (stereo not given) | > 100 | – | > 100 | – | – | – | – | > 100 | – | – | –
13 | COC(=O)C(C(=O)C(=O)Nc1ccccc1OC)c1csc(-n2nc(-c3ccccc3)cc2-c2ccccc2)n1 (stereo not given) | > 100 | > 100 | > 100 | > 100 | > 100 | – | – | > 100 | – | – | –
14 | COc1ccc(-c2c(N)[n+]([O-])c3cc(C)c(C)cc3[n+]2[O-])cc1OC | > 100 | > 100 | 67.8 | 38.8 | > 100 | – | – | > 100 | – | – | –
15 | CCCCCN(CCCCC)C(=O)[C@@H](CCC(=O)OCc1ccccc1)NC(=O)c1cc2ccccc2[nH]1 | > 100 | – | > 100 | > 100 | > 100 | – | – | > 100 | – | – | –
16 | Fc1cccc(F)c1C1SCc2nc3ccccc3n21 (stereo not given) | > 100 | > 100 | – | – | > 100 | – | – | > 100 | – | – | –
17 | N#Cc1c(NC(=O)CCC(=O)O)ccc2ccccc12 | – | – | – | – | – | – | – | – | – | > 100 µM | –
18 | O=C1C=C(Br)C(=O)C(Br)=C1 | > 100 | > 100 | > 100 | > 100 | > 100 | – | – | > 100 | – | – | –
19 | CCC(=S)N(C)O | – | 29.8 | 5.82 | – | > 100 | – | – | – | – | > 100 µM | –
20 | O=C(O)[C@@H]1C[C@@H](O)CN1 | – | – | – | – | – | – | – | – | – | > 100 µM | –
21 | COc1cc(C2C(C(=O)O)=C(C)Oc3cc4c(cc32)OCO4)cc(OC)c1OC (stereo not given) | > 100 | 95.9 | 50.6 | > 100 | > 100 | – | – | > 100 | – | – | –
22 | CC(=O)O[C@H]1CCC2[C@@H]3CCC4C(=O)c5oncc5C[C@]4(C)C3CC[C@@]21C (stereo not given in full) | > 100 | > 100 | > 100 | – | > 100 | – | – | – | – | – | –

Row | Structure (SMILES) | TGI [1] [µM] | TGI [2] [µM] | TGI [3] [µM] | TGI [4] [µM] | TGI [5] [µM] | TGI [6] [µM] | TGI [7] [µM] | TGI [8] [µM] | TGI [9] [µM] | TGI [10] | GI50 [10] [µg/mL]
23 | COc1ccc(/C=N/NC(=O)O)cc1 | – | – | – | – | – | – | – | – | – | > 100 µM | –
24 | CC(=O)Nc1ccc(/C=c2\sc3nnc(/C=C/c4ccccc4)n3c2=O)cc1 | > 50 | > 50 | > 50 | > 50 | > 50 | – | – | > 50 | – | – | –
25 | CC1CC2C3CC(F)C4=CC(=O)C=CC4(C)C3(F)C(O)CC2(C)C1(O)C(=O)CO (stereo not given) | > 100 | > 100 | > 100 | > 100 | > 100 | – | – | – | – | – | –
26 | CC(NC1CCC[C@H]1O)c1ccccc1 (mixture of isomers) | > 100 | > 100 | > 100 | – | > 100 | – | – | > 100 | – | – | –
27 | CC1=CC(C)C(O)C(C)/C=C/C(O)C/C=C(/C)C(=O)CC(O)C(C)\C=C/C=C/C=C\C(=O)NC2=C(O)c3cc(C)c(O)c(c3C(=O)C2=O)C1=O (stereo not given) | – | – | – | – | – | – | – | – | – | > 100 µM | –
28 | COC(=O)C1CCc2c(OC)ccc(OC)c2C1=O (stereo not given) | > 100 | – | > 100 | – | > 100 | – | – | > 100 | – | – | –
29 | c1ccc(-c2cc(-c3cc(-c4ccccn4)[nH]n3)n[nH]2)nc1 | – | – | – | – | – | – | – | – | – | > 100 µM | –
30 | O=C=Nc1ccc(Cc2ccc(N=C=O)cc2)cc1 (tested in a mixture with another compound) | – | – | – | – | – | – | – | – | – | > 25 µg/mL | > 25
31 | NC(C(=O)O)C(N)C(=O)O (stereo not given) | – | – | – | – | – | – | – | – | – | > 100 µM | –
32 | NC1=C(c2nc(-c3cc4ccccc4oc3=O)cs2)C(c2ccco2)c2c(c3ccccc3oc2=O)O1 (stereo not given) | – | – | – | – | – | – | – | – | – | > 150 µg/mL | > 150
33 | CC(=O)N1c2ccccc2C23CCN4CC5=CCOC(O)C(C5CC42)C13 (stereo not given) | – | – | – | – | – | – | – | – | – | > 100 µM | –
34 | Cc1oc2c(c1C(=O)c1ccccc1)C(=O)c1ccccc1C2=O | 26.7 | 5.18 | 8.03 | > 100 | 31.9 | – | – | 30.4 | – | 3.9 µM | –
35 | COc1ccc(OC)c(CCc2cc(OC)c(OC)cc2C)c1 | – | > 100 | 72.9 | – | > 100 | – | – | – | – | – | –
36 | C=C(CO)CC(O)c1ccccc1 (stereo not given) | > 100 | > 100 | > 100 | > 100 | > 100 | – | – | – | – | – | –
37 | O=C(C#Cc1c[nH]c(=O)[nH]c1=O)c1ccccc1 | 28.9 | – | 35.4 | 27.4 | – | – | – | 29.2 | – | – | –
38 | CSc1s[s+]c(SC)c1[O-] | > 100 | > 100 | 34.6 | 41.8 | > 100 | – | – | > 100 | – | – | –
39 | Cc1ccc(C(=O)/C=C/c2ccccc2Cl)cc1 | 29.4 | – | 35.5 | – | 30.9 | – | – | 76.1 | – | – | –
40 | C=C1CC2(OC1=O)c1ccccc1CCc1ccccc12 | 11.3 | 3.88 | 3.42 | – | 14.5 | – | – | 4.61 | – | 3.34 µM | –
41 | O=C(Nc1cc(C(F)(F)F)ccc1Cl)C(=O)C(C(=O)c1ccc2ccccc2c1)C1OC(=O)c2ccccc21 (stereo not given) | – | – | 52.9 | – | 39.1 | – | – | – | – | – | –
42 | Cc1cccc(NC(=O)CC2C(=O)Nc3ccccc3S2(=O)=O)c1C (stereo not given) | > 100 | – | 51.6 | – | > 100 | – | – | 61.9 | – | – | –
43 | CC1=CCC2(C#N)CCC1C2=O (stereo not given) | – | > 100 | > 100 | > 100 | > 100 | – | – | – | – | – | –

Reference: PubChem BioAssay (NCI)
